Measured values as given in patent US7572770B2, “Use of an interleukin 1 receptor antagonist and/or pyrrolidinedithiocarbamate for the treatment or prophylaxis of type 2 diabetes” (University of Zurich, priority 2002, dated 2009).

Experiments:
Format in all cases: cell-based
IL-1β = IL-1β release from human blood monocytes exposed to leptin
Method: Human blood monocytes were isolated as described previously (37), cultured in RPMI 1640 (Invitrogen) containing 100 U/ml penicillin, 100 μg/ml streptomycin and 10% fetal calf serum and exposed to 10 or 500 nM leptin.
Cytokine release. Cytokine release was evaluated in the culture medium collected before the termination of each experiment using human IL-1β and IL-1Ra ELISA kits (R&D Systems Inc.).

human islets β-cells = assay: β-cell apoptosis (TUNEL, caspase 3 activation) in human islets, leptin/siRNA study; conditions: for cleaved caspase 3 level: leptin
Method: (§1) Islet isolation and cell culture. Islets were isolated from pancreases of ten organ donors at the Department of Surgery, University of Geneva Medical Center, as described (32-34). The islet purity was >95%, as judged by dithizone staining (if this degree of purity was not primarily achieved by routine isolation, islets were handpicked). […] For long-term in vitro studies, the islets were cultured on extracellular matrix-coated plates derived from bovine corneal endothelial cells (Novamed Ltd., Jerusalem, Israel), allowing the cells to attach to the dishes and spread, preserving their functional integrity (7;35). Islets were cultured in CMRL 1066 medium containing 100 U/ml penicillin, 100 μg/ml streptomycin and 10% fetal calf serum (Invitrogen Corporation, Paisley, U.K.), hereafter referred to as culture medium. Two days after plating, when most islets were attached and began to flatten, the medium was changed to culture medium containing 5.5, 11.1 or 33.3 mM glucose. In some experiments, islets were additionally cultured with 5, 10 or 500 nM rh leptin (PeproTech, London, UK), 500 ng/ml rh IL-1Ra (R&D Systems Inc., Minneapolis, Minn.) or 50 nM small interfering RNA (siRNA) as described below.
(§2) RNA interference. RNAs of 21 nucleotides, designed to target human IL-1Ra (5′AUCUGCAGAGGCCUCCGCAtt3′/5′UGCGGAGGCCUCUGCAGAUtt3′) and scrambled siRNA were synthesized by Ambion (Austin, Tex.). siRNAs were transfected using SiPortAmine™ according to the manufacturer's instructions (Ambion).
Western blot analysis. Human islets were maintained in culture medium in nonadherent plastic dishes. One day after isolation, the medium was changed and groups of 200 islets were incubated in culture medium containing 5.5 glucose with or without 10 or 500 nM leptin or 50 nM siRNA. At the end of the incubations, islets were washed in PBS, suspended in 40 μl sample buffer containing 125 mM Tris-HCl (pH 6.8), 4% SDS, 10% glycerol, 0.3% bromphenol blue, 1.8% β-mercaptoethanol and boiled for 5 min. Equivalent amounts of each treatment group were run on 15% SDS polyacrylamide gels. Proteins were electrically transferred to nitrocellulose filters and incubated with biotinylated goat anti-IL-1Ra, mouse anti-caspase 3 (which binds to both, procaspase-3 and activated caspase-3; Pharmingen, San Diego, Calif.), or mouse anti-actin (C-2; Santa Cruz Biotechnology Inc., Santa Cruz, Calif.) antibodies, followed by incubation with horseradish-peroxidase-linked anti-mouse (Santa Cruz Biotechnology Inc.) or streptavidin (Jackson). The emitted light was captured on X-ray film after adding Lumi-Light Western Blotting Substrate (Roche, Basel, Switzerland). As a marker, Kaleidoscope Prestained Standards (Bio Rad, Laboratories inc., Hercules, Calif.) was run in parallel. Between incubations, nitrocellulose membranes were stripped for 30 min at 50° C. in 40 ml of a solution containing 280 μl β-mercaptoethanol, 5 ml 0.5 M Tris-HCl (pH 6.8) and 10% SDS, and then washed for 1 h in Tris-buffered saline containing 0.10/0 Tween-20.
β-cell apoptosis. The free 3′-OH strand breaks resulting from DNA degradation were detected using the terminal deoxynucleotidyl transferase-mediated dUTP nick-end labeling (TUNEL) technique as described in detail (70;76;77). Thereafter, islets were incubated with guinea pig anti-insulin antibody as above, followed by detection using the streptavidin-biotin-peroxidase complex (Zymed Laboratories Inc., South San Francisco, Calif., USA). In parallel to the TUNEL reaction, apoptosis was confirmed by detection of caspase 3 activation as described above (Western blot analysis).

human islets = assay: Insulin release and content of human islets, leptin/siRNA study
Method: as §1, §2
Insulin release and content. To determine acute insulin release in response to glucose stimulation, islets were washed in Kreb's ringer bicarbonate buffer (KRB-Hepes, pH 7.4: 4.8 mM KCl, 134 mM NaCl, 5 mM NaHCO3, 1.2 mM MgSO4, 1.2 mM KH2PO4, 1 mM CaCl2, 0.5% BSA, 10 mM HEPES) containing 3.3 mM glucose and pre-incubated for 30 min in the same buffer. The KRB was then discarded and replaced by fresh buffer containing 3.3 mM glucose for 1 h for basal secretion, followed by an additional 1 h of incubation in KRB containing 16.7 mM glucose. Supernatants were collected and frozen for insulin assays. Thereafter, islets were washed with PBS and extracted with 0.18 N HCl in 70% ethanol for 24 h at 4° C. The acid-ethanol extracts were collected for determination of insulin content. Insulin was determined by a human insulin RIA kit (CIS bio international, Gif-Sur-Yvette, France).

[1] = leptin plus exogenous rh IL-1Ra 500 ng/ml
[2] = plus 500 ng/ml exogenous rhIL-1Ra

| Substance | IL-1β release from peripheral blood monocytes (IL-1β; 15 hours) | IL-1β release from peripheral blood monocytes (IL-1β; 48 hours) | number of TUNEL-positive β-cells (human islets β-cells; 10 nM leptin, 4 days) | 33.3 mM glucose-induced apoptosis (human islets β-cells; leptin plus 33.3 mM glucose, 4 days) | cleaved caspase 3 level (human islets β-cells; 15 hours) | cleaved caspase 3 level (human islets β-cells; 48 hours) | decrease of chronic insulin secretion during the culture period (human islets; leptin, 4 days) [%] | glucose-stimulated insulin secretion (human islets; leptin, 4 days, 5.5 mM glucose) | insulin content (human islets; leptin, 4 days, 5.5 mM glucose) | leptin-induced β-cell apoptosis (human islets β-cells; [1]) | β-cell apoptosis induced by 33.3 mM glucose alone (human islets β-cells; [2]) | β-cell apoptosis induced by 33.3 mM glucose and siIL-1Ra (human islets β-cells; [2]) | siIL-1Ra-induced DNA fragmentation (human islets β-cells; siIL-1Ra plus 500 ng/ml exogenous rhIL-1Ra) | β-cell function and insulin content (human islets; [1]) | loss of acute glucose-stimulated insulin release by high glucose and/or siIL-1Ra (human islets; plus exogenous rh IL-1Ra) | insulin content (human islets; siIL-1Ra and/or high glucose plus rh IL-1Ra) | glucose stimulation of insulin release (human islets; siIL-1Ra at 5.5 mM glucose, co-incubation with exogenous rh IL-1Ra) |
| --- | --- | --- | --- | --- | --- | --- | --- | --- | --- | --- | --- | --- | --- | --- | --- | --- | --- |
| leptin: rh leptin (PeproTech); protein encoded by the ob gene | increased IL-1β release | did not significantly affect IL-1β release | increased the number of TUNEL-positive β-cells | enhanced 33.3 mM glucose-induced apoptosis | did not change baseline cleaved caspase 3 level | an increase became apparent | 41.65 | impaired glucose-stimulated insulin secretion | decreased insulin content |  |  |  |  |  |  |  |  |
| Interleukin 1 receptor antagonist [IL-1Ra] |  |  |  |  |  |  |  |  |  | prevented leptin-induced β-cell apoptosis | protected the β-cells from apoptosis | partially | prevented the effect of siIL-1Ra on DNA fragmentation | restored β-cell function and insulin content | partially prevented those effects | partially restored | restored glucose stimulation |
